Experimental data published in patent US6531499B2, “Matrix metalloproteinase inhibitors and method of using same” (Wisconsin Alumni Research Foundation, priority 1999, dated 2003).

How the values were obtained:
MMP-2 = molecular target: T1, MMP-2 (Homo sapiens, UniProt P08253); assay: Colorimetric 96-well thiopeptolide collagenase assay; assay type: biochemical; conditions: change in absorbance at 405 nm
T1 sequence (P08253 110-660): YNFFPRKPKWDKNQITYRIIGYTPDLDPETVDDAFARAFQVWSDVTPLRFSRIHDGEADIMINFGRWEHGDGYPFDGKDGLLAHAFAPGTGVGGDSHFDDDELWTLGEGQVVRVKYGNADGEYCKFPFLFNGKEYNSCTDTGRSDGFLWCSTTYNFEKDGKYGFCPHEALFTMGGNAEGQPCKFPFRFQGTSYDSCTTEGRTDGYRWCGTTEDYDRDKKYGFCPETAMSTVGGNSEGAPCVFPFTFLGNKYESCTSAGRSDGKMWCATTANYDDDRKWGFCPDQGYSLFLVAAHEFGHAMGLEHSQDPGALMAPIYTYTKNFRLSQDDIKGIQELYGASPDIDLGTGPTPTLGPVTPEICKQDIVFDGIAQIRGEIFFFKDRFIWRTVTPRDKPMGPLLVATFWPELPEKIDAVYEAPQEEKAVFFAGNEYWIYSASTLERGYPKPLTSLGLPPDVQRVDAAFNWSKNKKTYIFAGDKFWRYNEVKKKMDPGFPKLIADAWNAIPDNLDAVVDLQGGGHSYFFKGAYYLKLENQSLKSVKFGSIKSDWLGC
Method: The preferred assay method to measure MMP inhibitory activity is a colorimetric assay which can be monitored spectrophotometrically. Specifically, the ability of the subject matrix metalloproteinase inhibitors to suppress MMP-2 or MMP-9 activity is assessed using a colorimetric 96-well thiopeptolide collagenase assay as described by Xia et al. (Xia T, Akers K, Eisen A Z and Seltzer J L. (1996) Biochim et Biophy Acta. 1293:259). This protocol entails the cleavage of a thiopeptolide substrate AcProLeuGly-S-LeuGlyOC2H5 (Bachem Bioscience, Cat # H7145) by MMP-2 or MMP-9, giving a free sulfhydryl group. The free —SH then reacts with DTNB (Ellman's reagent, 5,5′-dithio-bis(2-nitrobenzoic acid)) giving a colored molecule whose formation can be examined spectrophotometrically at 405 nm.
The thiopeptolide substrate (5 μL/well, 5 mM in DMF), DTNB (15 μL/well, 10 mM in 50 mM HEPES, 10 mM CaCl2, pH 6.92), and matrix metalloproteinase inhibitors or DMSO (total volume equal to 5 μL/well) are mixed in a 96-well plate (Falcon). A single row of wells is used for each matrix metalloproteinase inhibitor and various inhibitor concentrations are used to control for row to row variation in collagenase activity. The reaction is then initiated by pipeting 130 μL of a solution of collagenase buffer (126 μL/well, 50 mM HEPES, 10 mM CaCl2, pH 6.92) and activated MMP-2 or MMP-9 (4 μL/well, 0.05 M borate, pH 7.46, 5 mM CaCl2 , 20% glycerol, 0.0005% Brij-35) into a row of wells using a 12-channel multipipeter. The change in absorbance from 0-20 minutes is then monitored at 405 nm using an ELX 800 automated microplate reader (Bio-Tek Instruments, Inc., Winooski, Vt.). The change in absorbance is calculated and graphed.
The thiopeptolide substrate AcProLeuGly-S-LeuGlyOC2H5 (5 μL/well, 5 mM in DMF), DTNB (15 μL/well, 10 mM in 50 mM HEPES, 10 mM CaCl2, pH 6.92), and matrix metalloproteinase inhibitors or DMSO (total volume equal to 5 μL/well) were mixed in a 96-well plate. A single row of wells was used for each concentration of the test compound and concentrations of 10, 20, and 40 μM of the test compound were used. The reaction was then initiated by pipeting 130 μL of a solution of collagenase buffer (126 μL/well, 50 mM HEPES, 10 mM CaCl2, pH 6.92) and activated MMP-2 (4 μL/well, 0.05 M borate, pH 7.46, 5 mM CaCl2, 20% glycerol, 0.0005% Brij-35) into a row of wells using a 12-channel multipipeter. The change in absorbance from 0-20 minutes was then monitored at 405 nm. The change in absorbance was calculated and graphed; the results are depicted in FIG. 4.

HiMel cells = assay: In vitro invasion assay: HiMel cell penetration of […] (Transwell); assay type: cell-based, human; conditions: same assay as Example 3; concentration not given
Source text: An 8 μm pore filter coated with “[…]” separates a series of lower compartments containing a chemoattractant and a corresponding series of upper compartments containing metastatic and non-metastatic cells and a compound to be tested. The metastatic cells are able to degrade the “[…]” barrier and, over a period of time, migrate through the pores of the filter whereas non-metastatic cells remain on the upper surface. The cells that pass to the underside of the filter are counted under a microscope to determine the extent to which they are able to pass from the upper compartment into the lower compartment. […]
This method has been refined to increase the number of assays which may be performed and analyzed per day. […] Motility of the cells through the 8 μm filters is not by passive diffusion since the pore size is smaller than the cells, and is determined in the same chamber in the absence of “[…]”. […]
Compounds to be tested were dissolved in DMSO and were added in serial dilutions of 0 (control) 1, and 10 μM. […] Invasive cells found on the under side of the filter were measured by solubilizing the stain in 10% acetic acid 20% methanol and reading the absorbance at 595 nm.

F442A fibroblast = assay type: cell-based; conditions: concentrations up to 100 μM; 6 to 24 hours in serum-free medium
Method: Toxicity of the compounds was determined by incubating several log doses of the compound and solvent controls for 6 to 24 hours in serum-free medium. The cell number was then determined by comparing the absorbance of crystal violet with controls, and cell death determined by trypan blue dye exclusion in conventional and well known fashion. The model cell line used was a murine fibroblast cell line designated F442A, which was generously provided by Dr. Howard Green of Harvard University.
The compounds were cleaved from the beads into a single solution and tested in this combined fashion.

[1] = 0 (control), 40, 80, and 160 μM

Compound	inhibition of MMP-2 collagenase activity (MMP-2; [1])	inhibition of MMP-2 collagenase activity (MMP-2; 10, 20, and 40 μM, 0-20 minutes)	inhibition of HiMel MATRIGEL invasion as compared to the control (HiMel cells)	effect on the growth / viability of fibroblasts (F442A fibroblast)
NC(=O)CN(Cc1ccccc1)C(=O)CN(CCCc1ccccc1)C(=O)Nc1ccc(Oc2ccccc2)cc1	inhibits MMP-2 collagenase activity in a dose-dependent fashion			
O=C(CN(Cc1ccccc1)C(=O)CN(CCCc1ccccc1)C(=O)Nc1ccc(Oc2ccccc2)cc1)NO		inhibited MMP-2 collagenase activity in a dose-dependent manner	approximately 50%	no significant effect
O=C(Nc1ccc(Oc2ccccc2)cc1)Nc1ccc(-c2ccccc2)cc1	inhibits MMP-2 collagenase activity in a dose-dependent fashion		approximately 50%	
O=C(CN(CCCCc1ccccc1)C(=O)CN(CCCc1ccccc1)C(=O)Nc1ccc(Oc2ccccc2)cc1)NO	inhibits MMP-2 collagenase activity in a dose-dependent fashion			no significant effect
O=C(Nc1ccc(Oc2ccccc2)cc1)Nc1ccc(Oc2ccccc2)cc1	inhibits MMP-2 collagenase activity in a dose-dependent fashion			
